Source: paper PMC9919727 (Molecules, 2023)
Read-outs that look alike come from different tables or passages of the source.

Columns and labels:
[1] = target: Carbonic anhydrase II (bCA II) (Bos taurus, UniProt P00921); test: CA II inhibition assay (4-nitrophenyl acetate hydrolysis); type: biochemical, bovine; settings: for inhibition of the enzyme CA II (in words): under the conditions of the assay
Experimental: For the CA II assay: Carbonic anhydrase II (bCA II, ≥3000 W-A units/mg from bovine erythrocytes) as well as 4-nitrophenyl acetate (4-NA) were purchased from Sigma.
The substrate (25 µL, [4-NA] = 0.75 mM, 0.50 mM, 0.25 mM, 0.15 mM) was added to start the enzymatic reaction. […] The relative inhibition was determined as the quotient of the slopes (compound divided by blank) of the linear ranges.

[2] = tested on: HT29 (colorectal adenocarcinoma); test: SRB cytotoxicity assay, HT29; type: cell-based; settings: Homo sapiens, read-out: EC50 HT29
Experimental: (§1) Expression of CA II and its involvement cancer has previously been established for A375 [82], HT29 [83] as well as for MCF-7 cells. Cell line A2780 and non-malignant fibroblasts (NIH 3T3) were employed for comparison.
(§2) NMR spectra were recorded using the Varian spectrometers (Darmstadt, Germany) DD2 and VNMRS (400 and 500 MHz, respectively). MS spectra were taken on a Advion expressionL CMS mass spectrometer (Ithaca, USA; positive ion polarity mode, solvent: methanol, solvent flow: 0.2 mL/min, spray voltage: 5.17 kV, source voltage: 77 V, APCI corona discharge: 4.2 μA, capillary temperature: 250 °C, capillary voltage: 180 V, sheath gas: N2). Thin-layer chromatography was performed on pre-coated silica gel plates supplied by Macherey-Nagel (Düren, Germany). IR spectra were recorded on a Spectrum 1000 FT-IR-spectrometer from Perkin Elmer (Rodgau, Germany). The UV/Vis-spectra were recorded on a Lambda 14 spectrometer from Perkin Elmer (Rodgau, Germany); optical rotations were measured using a JASCO-P2000 instrument (JASCO Germany GmbH, Pfungstadt, Germany) The melting points were determined using the Leica hot stage microscope Galen III (Leica Biosystems, Nussloch, Germany) and are uncorrected. The solvents were dried according to usual procedures. Microanalyses were performed with an Elementar Vario EL (CHNS) instrument (Elementar Analysensysteme GmbH, Elementar-Straße 1, D-63505 Langenselbold, Germany). All dry solvents were distilled over respective drying agents except for DMF which was distilled and stored under argon and molecular sieve. Reactions using air- or moisture-sensitive reagents were carried out under argon atmosphere in dried glassware. Triethylamine was stored over potassium hydroxide. Biological assays were performed as previously reported employing cell lines obtained from the Department of Oncology [Martin-Luther-University Halle Wittenberg; they were bought from ATCC: malignant: A 375, HT29, MCF7, and A2780; non-malignant: NIH 3T3]. Oleanolic and ursolic acid were obtained from Betulinines (Strbrna Skalice, Czech Republic) and used as received. Glycyrrhetinic acid was bought from Orgentis Chemicals GmbH (Gatersleben).
(§3) For the SRB assay: cells were seeded into 96-well plates on day zero at appropriate cell densities to prevent confluence of the cells during the period of the experiment. […] After 72 h of treatment, the supernatant media from the 96-well plates were discarded, then the cells were fixed with 10% trichloroacetic acid and allowed to rest at 4 °C. After 24 h of fixation, the cells were washed in a strip washer and then dyed with SRB solution (200 μL, 10 mM) for 20 min. Then the plates were washed four times with 1% acetic acid to remove the excess of the dye and allowed to air-dry overnight. Tris base solution (200 μL, 10 mM) was added to each well. The absorbance was measured with a 96-well plate reader from Tecan Spectra.

[3] = tested on: A2780 (ovarian carcinoma); test: SRB cytotoxicity assay, A2780; type: cell-based; settings: Homo sapiens, read-out: EC50 A2780
Experimental: as §1, §2, §3

[4] = tested on: NIH 3T3 (non-malignant fibroblasts); test: SRB cytotoxicity assay, NIH 3T3; type: cell-based; settings: Mus musculus, read-out: EC50 NIH 3T3
Experimental: as §1, §2, §3

[5] = tested on: A375 (epithelial melanoma); test: SRB cytotoxicity assay, A375; type: cell-based; settings: Homo sapiens, read-out: EC50 A375
Experimental: as §1, §2
as §3, with “Then the plates were washed four times with 1% acetic acid to remove the excess of the dye and allowed to air-dry overnight. Tris base solution (200 μL, 10 mM) was added to each well.” left out

[6] = tested on: MCF-7 (breast adenocarcinoma); test: SRB cytotoxicity assay, MCF-7; type: cell-based; settings: Homo sapiens, read-out: EC50 MCF-7
Experimental: as §1, §2, §3

[7] = HT-29, SRB assay, after 72 h of treatment
[8] = A2780, SRB assay, after 72 h of treatment
[9] = NIH3T3, SRB assay, after 72 h of treatment, non-malignant fibroblasts
[10] = MCF7, SRB assay, after 72 h of treatment
[11] = at 10 µM concentration, read-out: Inhibition [%]
[12] = A-375, SRB assay, after 72 h of treatment

Chain of Carbonic anhydrase II (bCA II) (P00921 whole entry): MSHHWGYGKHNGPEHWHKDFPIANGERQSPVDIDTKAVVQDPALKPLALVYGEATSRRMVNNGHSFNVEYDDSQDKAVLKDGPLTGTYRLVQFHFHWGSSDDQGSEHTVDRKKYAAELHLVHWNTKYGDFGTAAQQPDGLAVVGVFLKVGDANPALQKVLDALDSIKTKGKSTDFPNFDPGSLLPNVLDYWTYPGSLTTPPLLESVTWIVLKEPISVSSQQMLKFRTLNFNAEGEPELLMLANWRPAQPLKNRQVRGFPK

Row | Structure (SMILES) | EC50 [2, 7] | EC50 [3, 8] | EC50 [4, 9] | EC50 [6, 10] | inhibition of the enzyme CA II (in words) [1] | melting point | also measured
1 | C=C(C)[C@@H]1CC[C@]2(COC(=O)CCC(=O)Nc3nnc(S(N)(=O)=O)s3)CC[C@]3(C)[C@H](CC[C@@H]4[C@@]5(C)CC[C@H](OC(C)=O)C(C)(C)[C@@H]5CC[C@]43C)[C@@H]12 [Compound 6, (3β)-3-(Acetyloxy)lup-20(29)-en-28-yl 4-{[5-(aminosulfonyl)-1,3,4-thiadiazol-2-yl]amino}-4-oxobutanoate] |  |  |  |  |  |  | Ki [1]: 0.129 ± 0.02 µM; inhibition at 10 µM [1]: 93 ± 0.1%; mode of inhibition of CA II [1]: competitive inhibitor; EC50 ([2]; HT-29, 72 h): 10.2 ± 1.3 µM; EC50 ([3]; A2780, 72 h): 9.3 ± 1.2 µM; EC50 ([4]; NIH3T3, 72 h): 9.5 ± 1 µM; EC50 ([5]; A-375, 72 h): 8.5 ± 0.7 µM; EC50 ([6]; MCF7, 72 h): 8.9 ± 0.7 µM
2 | COc1cccc2c1C(=O)c1c(O)c3c(c(O)c1C2=O)C[C@@](O)(C(=O)CO)C[C@@H]3O[C@H]1C[C@H](N)[C@H](O)[C@H](C)O1 [DX, doxorubicin, reference compound] | 0.25 ± 0.02 µM | 0.1 ± 0.01 µM | 0.01 ± 0.001 µM | 0.1 ± 0.01 µM |  |  | 
3 | C=C(C)[C@@H]1CC[C@]2(C(=O)O)CC[C@]3(C)[C@H](CC[C@@H]4[C@@]5(C)CC[C@H](O)C(C)(C)[C@@H]5CC[C@]43C)[C@@H]12 [betulinic acid, reference compound] |  |  |  |  | did not inhibit the enzyme |  | 
4 | CC1(C)[C@@H](O)CC[C@]2(C)[C@H]3C(=O)C=C4[C@@H]5C[C@@](C)(C(=O)O)CC[C@]5(C)CC[C@@]4(C)[C@]3(C)CC[C@@H]12 [glycyrrhetinic acid, reference compound] |  |  |  |  | did not inhibit the enzyme |  | 
5 | CC(=O)O[C@H]1CC[C@]2(C)[C@H]3CC=C4[C@@H]5CC(C)(C)CC[C@]5(COC(=O)CCC(=O)Nc5nnc(S(N)(=O)=O)s5)CC[C@@]4(C)[C@]3(C)CC[C@H]2C1(C)C [Compound 18, (3β) 3-(Acetyloxy)olean-12-en-28-yl-4-{[5-(aminosulfonyl)-1,3,4-thiadiazol-2-yl]amino}-4-oxobutanoate] | 14.2 ± 1.4 µM | 11.8 ± 1.4 µM | 14 ± 1.5 µM | 10.6 ± 1.4 µM |  | 198 to 200 °C | inhibition at 10 µM [1, 11]: 49.4 ± 0.1%; EC50 [5, 12]: 10.1 ± 0.8 µM
6 | C=C(C)[C@@H]1CC[C@]2(CO)CC[C@]3(C)[C@H](CC[C@@H]4[C@@]5(C)CC[C@H](O)C(C)(C)[C@@H]5CC[C@]43C)[C@@H]12 [betulin, reference compound] |  |  |  |  | did not inhibit the enzyme |  | 
7 | C=C(C)[C@@H]1CC[C@]2(CO)CC[C@]3(C)[C@H](CC[C@@H]4[C@@]5(C)CC[C@H](OC(C)=O)C(C)(C)[C@@H]5CC[C@]43C)[C@@H]12 [Compound 2, 3-O-Acetyl-betulin] |  |  |  |  |  |  | inhibition rates (CA II) ([1]; conditions of the assay): less than 10%
8 | CC1(C)CC[C@]2(C(=O)O)CC[C@]3(C)C(=CC[C@@H]4[C@@]5(C)CC[C@H](O)C(C)(C)[C@@H]5CC[C@]43C)[C@@H]2C1 [oleanolic acid, reference compound] |  |  |  |  | did not inhibit the enzyme |  | 
9 | CC(=O)O[C@H]1CC[C@]2(C)[C@H]3CC=C4[C@@H]5[C@@H](C)[C@H](C)CC[C@]5(COC(=O)CCC(=O)Nc5nnc(S(N)(=O)=O)s5)CC[C@@]4(C)[C@]3(C)CC[C@H]2C1(C)C [Compound 19, (3β)-3-(Acetyloxy)urs-12-en-28-yl-4-{[5-(aminosulfonyl)-1,3,4-thiadiazol-2-yl]amino}4-oxobutanoate] | 15 ± 0.6 µM | 12.5 ± 1.7 µM | 14.8 ± 1.5 µM | 12.4 ± 0.8 µM |  | 190 to 192 °C | Ki ([1]; CA II, Dixon plot, read-out: Ki): 0.91 ± 0.17 µM; inhibition at 10 µM [1, 11]: 70.8 ± 0.2%; EC50 [5, 12]: 13.7 ± 1.1 µM
10 | C=C(C)[C@@H]1CC[C@]2(COC(=O)CCC(=O)O)CC[C@]3(C)[C@H](CC[C@@H]4[C@@]5(C)CC[C@H](OC(C)=O)C(C)(C)[C@@H]5CC[C@]43C)[C@@H]12 [Compound 3, 4-{[(3β)-3-(Acetyloxy)lup-20(29)-en-28-yl]oxy}-4-oxobutanoic Acid] |  |  |  |  |  | 189 to 191 °C | inhibition rates (CA II) [1]: less than 10%
11 | C[C@H]1[C@H](C)CC[C@]2(C(=O)O)CC[C@]3(C)C(=CC[C@@H]4[C@@]5(C)CC[C@H](O)C(C)(C)[C@@H]5CC[C@]43C)[C@H]12 [ursolic acid, reference compound] |  |  |  |  | did not inhibit the enzyme |  | 
12 | CC(=O)O[C@H]1CC[C@]2(C)[C@H]3C(=O)C=C4[C@@H]5C[C@@](C)(COC(=O)CCC(=O)Nc6nnc(S(N)(=O)=O)s6)CC[C@]5(C)CC[C@@]4(C)[C@]3(C)CC[C@H]2C1(C)C [Compound 20, (3β, 20β) 3-(Acetyloxy)-11-oxoolean-12-en-30-yl-4-{[5-(aminosulfonyl)-1,3,4-thiadiazol-2-yl]amino}-4-oxobutanoate] | 13 ± 1.3 µM | 9.8 ± 0.8 µM | 11.9 ± 1.7 µM | 10.5 ± 1.2 µM |  | 179 to 181 °C | inhibition at 10 µM [1, 11]: 96.8 ± 0.2%; EC50 [5, 12]: 9.2 ± 0.5 µM
